Assay [1] relates to STING. Description: ISG activity of protein:CDN and antigen:CDN conjugates in reporter cell lines. Format: cell-based. From the text:
In the present invention, we evaluated using reporter cell lines the ISG activity of protein:CDN conjugates using in vitro conditions favorable to the release of both components.

Assay [2] addresses STING (Homo sapiens, UniProt Q86WV6, G230A/H232R/R293Q/R71H). Kind of assay: ISG54 (IRF pathway) reporter assay in THP1-Dual cells.
The test system of another assay is Type I IFNs. Description: Whole-blood assay, type I IFN induction (HEK-Blue IFN-α/β-KO-STING readout). Format: cell-based, human. To be noted: relative to CL656 at 1 μM.
Another assay concerns the target PDL1 (Homo sapiens, UniProt Q9NZQ7). Kind of assay: Antigen binding ELISA of anti-PDL1mAb:CDN conjugate. To be noted: relative to anti PDL1 at 10 μg/mL. An excerpt: We performed Whole Blood Assay on healthy human donors to evaluate the ability of the anti-PDL1mAb:CDN conjugate (Compound 47) to induce type I interferons as described previously in Example 2.2. The binding properties of the anti-PDL1mAb:CDN conjugate have been evaluated using ELISA.

Chain of STING (Homo sapiens, UniProt Q86WV6, G230A/H232R/R293Q/R71H) (Q86WV6 whole entry R71H/G230A/H232R/R293Q): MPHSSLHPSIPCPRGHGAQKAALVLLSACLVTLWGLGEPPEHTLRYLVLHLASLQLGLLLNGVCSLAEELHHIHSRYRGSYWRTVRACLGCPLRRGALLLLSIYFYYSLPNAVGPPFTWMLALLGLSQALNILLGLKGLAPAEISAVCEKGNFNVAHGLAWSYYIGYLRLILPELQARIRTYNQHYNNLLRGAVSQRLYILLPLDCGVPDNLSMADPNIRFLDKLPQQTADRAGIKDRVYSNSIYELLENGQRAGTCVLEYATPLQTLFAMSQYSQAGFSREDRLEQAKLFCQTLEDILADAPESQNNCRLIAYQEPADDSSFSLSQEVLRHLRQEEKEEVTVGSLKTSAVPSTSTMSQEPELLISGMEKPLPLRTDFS
Chain of PDL1 (Q9NZQ7 19-290, species assumed): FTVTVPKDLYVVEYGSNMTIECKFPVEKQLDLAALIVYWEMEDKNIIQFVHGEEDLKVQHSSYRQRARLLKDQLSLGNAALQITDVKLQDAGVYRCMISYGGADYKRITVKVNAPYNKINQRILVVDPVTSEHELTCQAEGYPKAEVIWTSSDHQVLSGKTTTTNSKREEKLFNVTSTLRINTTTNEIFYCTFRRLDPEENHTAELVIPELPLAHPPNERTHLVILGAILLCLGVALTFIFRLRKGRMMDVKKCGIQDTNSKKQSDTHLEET

Turning to `Nc1ncnc2c1ncn2[C@@H]1O[C@@H]2COP(=O)(S)O[C@H]3[C@@H](F)[C@H](n4cnc5c(=O)[nH]cnc54)O[C@@H]3COP(=O)(S)O[C@H]2[C@H]1F` (stereo partly shown) [CL656, 3′3′-cAIM(PS)2 Difluor (Rp/Sp)], in the assay with STING [1] (antigen:CDN conjugates), the “ISG activity @ 50 μg/mL (% of CL656 @ 1 μM)” value was 100%. Besides, the “ISG activity @ 50 μg/mL (% of parental CND @ 1 μM)” value in the assay with STING [1] (in vitro conditions favorable to release of both components) was determined as 100%. Moreover, the 50% effective concentration (EC50) on STING [2] came to 1000 nM. The “Fold ISG induction vs unstimulated @10 μM” value on STING [2] (10 μM, THP1-Dual cells) was determined as 215 fold. For the same compound, in the assay with Type I IFNs, the “IFN activity @ 50 μg/mL in WBA (% of CL656 @ 1 μM)” value is 100%.

For the compound Atezolizumab, the “Antigen binding (% of anti PDL1 @ 10 μg/mL)” value at PDL1 is reported as 100%. The “IFN activity @ 50 μg/mL in WBA (% of CL656 @ 1 μM)” value with Type I IFNs worked out at 0%.

The record behind these values is US11730817B2, “Pro-cyclic dinucleotides and pro-cyclic dinucleotide conjugates for cytokine induction” (INVIVOGEN, priority 2017, dated 2023).
